Several values for one entry are separate records, joined by “and”; a condition that tells them apart may be missing. Equal entries are not always repeated. Where two headings read alike, the source gives them in different places.
Assays:
Format in all cases: biochemical
[1] = biological target: T1, human MT1-MMP/MMP-14 (catalytic domain) (Homo sapiens, UniProt P50281); assay: Enzyme inhibition kinetics, fluorogenic substrate ES001; conditions: MMP-14; for remaining activity at 100 µM: 100 µM inhibitor
T1 construct: human MT1-MMP/MMP-14 (catalytic domain); purchased Calbiochem (San Diego, CA, USA)
Method: (§1) Determination of reaction velocities. The substrate ES001 was used for APMA activated MMP-9 (MMP-9(A)), Mag-Trypsin activated MMP-9 (MMP-9(MT)) and MMP-14, while the substrate ES005 was used for ALN, PLN and TLN. The reaction velocities/initial rates (v) were determined at 37°C, at an excitation wavelength of 320 nm and an emission wavelength of 405 nm with a slit width of 10 nm using either a Perkin Elmer LS 50 Luminescence spectrometer and the FL WinLab Software Package (Perkin Elmer) or a Clario Star micro plate reader (CLARIOstar® BMG LABTECH).
(§2) The phosphinic compounds were dissolved in 100% DMSO to a final concentration of 10 mM. In all assays, a fixed substrate concentration of 4.0 µM was used in a total volume of 100 µL 0.1 M Hepes pH 7.5, 10 mM CaCl2, 0.005% Brij-35 and 1.0% DMSO. Fixed enzyme concentrations were as follows; 0.05 nM MMP-9(A), 0.05 nM MMP-9(MT), 1.0 nM MMP-14, 1.4 nM ALN, 0.5 nM PLN and 0.21 nM TLN. Time dependent inhibitory experiments, with and without 100 μM of phosphinic compounds, were performed as follows: Compounds were either pre-incubated with proteases for 15 and 30 minutes at room temperature before initiating the enzymatic reaction by adding the substrate, or not pre-incubated, meaning the reaction was initiated by adding the protease to the mixture of substrate and compound. Control tests without the compound present were performed under the same conditions. Reactions were monitored for 30 minutes at 37°C.
(§3) Determination of IC50 and Ki values. […] A fixed substrate concentration and the same enzyme and buffer conditions as described above were used. Enzymes, with or without inhibitors, were either pre-incubated for 30 minutes at room temperature or not pre-incubated, and initial rate assays were performed as described above. Assays were performed using a Clario Star microplate reader. The IC50 values with corresponding s.d. were calculated with GraphPad Prism 5 using equation 1 or 2, depending on the concentration range of the phosphinic compounds.
(§4) Equation 3 describe the relationship between IC50 and Ki values for substrate competitive inhibitors, considering the fixed substrate concentration and the enzyme’s Km value for the substrate: […]

[2] = biological target: T2, APMA activated MMP-9 (MMP-9(A)) (Homo sapiens, UniProt P14780); assay: as above; conditions: rMMP-9 (APMA activated); for remaining activity at 100 µM: 100 µM inhibitor
T2 construct: made in house; host or cells: Sf9 and High Five insect cells
Method: (§5) The expression of recombinant full length proMMP-9 (rpMMP-9) in Sf9 and High Five insect cells and the purification were performed as previously described. The amount of proMMP-9 was estimated spectrophotometrically at 280 nm using ε280nm = […] [46] for the full length enzyme. Activation of the recombinant proMMP-9 was performed with APMA (auto-activation) and Mag-Trypsin as previously described, while the amount of active MMP-9 was determined by active site titration using galardin, also described previously.
as §1, §2, §3, §4

[3] = biological target: T3, Mag-Trypsin activated MMP-9 (MMP-9(MT)) (Homo sapiens, UniProt P14780); assay: as above; conditions: rMMP-9 (Mag-trypsin activated); for remaining activity at 100 µM: 100 µM inhibitor
T3 construct: made in house; host or cells: Sf9 and High Five insect cells
Method: as §5, §1, §2, §3, §4

aureolysin (ALN) = biological target: T4, aureolysin (ALN) (Staphylococcus aureus, UniProt P81177); assay: Enzyme inhibition kinetics, fluorogenic substrate ES005; conditions: for remaining activity at 100 µM: 100 µM inhibitor
T4 construct: purchased BioCentrum Ltd (Kraków, Poland)
Method: as §1, §2, §3, §4

pseudolysin (PLN, LasB) = biological target: T5, pseudolysin (PLN, LasB) (Pseudomonas aeruginosa, UniProt P14756); assay: as above; conditions: for remaining activity at 100 µM: 100 µM inhibitor
T5 construct: purchased Calbiochem (San Diego, CA, USA)
Method: as §1, §2, §3, §4

thermolysin (TLN) = biological target: T6, thermolysin (TLN) (Bacillus thermoproteolyticus, UniProt P00800); assay: as above; conditions: for vi/v0 avg (time dependent inhibition, Supplementary Figure S8): Thermolysin, inhibitor 100 µM
T6 construct: purchased Calbiochem (San Diego, CA, USA)
Method: as §1, §2, §3, §4

[4] = 0.25 h, 15 min pre incubation, read-out: vi/v0 (single replicate)
[5] = 0.25 h, 15 min pre incubation, read-out: vi/v0 avg
[6] = 0.5 h, 30 min pre incubation, read-out: vi/v0 avg
[7] = no preincubation, read-out: vi/v0 (single replicate)
[8] = no preincubation, read-out: vi/v0 avg
[9] = inhibitor 100 μM, preincubation 0 min
[10] = inhibitor 100 μM, preincubation 15 min
[11] = inhibitor 100 μM, preincubation 30 min
[12] = 0.5 h, 30 min pre incubation, read-out: vi/v0 (single replicate)
[13] = inhibitor 100 μM, average over 0, 15, 30 min preincubation

T2 sequence (P14780 107-707 limits assumed): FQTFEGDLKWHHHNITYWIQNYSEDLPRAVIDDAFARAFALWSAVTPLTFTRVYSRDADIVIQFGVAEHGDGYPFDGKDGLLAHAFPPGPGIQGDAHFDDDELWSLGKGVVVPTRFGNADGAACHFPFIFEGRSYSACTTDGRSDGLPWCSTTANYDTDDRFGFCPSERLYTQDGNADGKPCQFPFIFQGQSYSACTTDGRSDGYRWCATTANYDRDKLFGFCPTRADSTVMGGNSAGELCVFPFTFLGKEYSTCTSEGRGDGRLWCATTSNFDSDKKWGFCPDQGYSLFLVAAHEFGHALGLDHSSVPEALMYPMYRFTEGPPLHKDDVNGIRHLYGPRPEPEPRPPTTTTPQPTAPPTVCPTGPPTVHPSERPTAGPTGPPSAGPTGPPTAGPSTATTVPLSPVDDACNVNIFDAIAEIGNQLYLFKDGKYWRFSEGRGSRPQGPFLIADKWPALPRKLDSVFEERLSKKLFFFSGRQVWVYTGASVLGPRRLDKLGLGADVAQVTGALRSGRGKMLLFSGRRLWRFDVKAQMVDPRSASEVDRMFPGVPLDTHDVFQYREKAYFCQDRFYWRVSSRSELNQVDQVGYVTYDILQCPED
T3 sequence (P14780 107-707 limits assumed): as above
T6 sequence (P00800 233-548): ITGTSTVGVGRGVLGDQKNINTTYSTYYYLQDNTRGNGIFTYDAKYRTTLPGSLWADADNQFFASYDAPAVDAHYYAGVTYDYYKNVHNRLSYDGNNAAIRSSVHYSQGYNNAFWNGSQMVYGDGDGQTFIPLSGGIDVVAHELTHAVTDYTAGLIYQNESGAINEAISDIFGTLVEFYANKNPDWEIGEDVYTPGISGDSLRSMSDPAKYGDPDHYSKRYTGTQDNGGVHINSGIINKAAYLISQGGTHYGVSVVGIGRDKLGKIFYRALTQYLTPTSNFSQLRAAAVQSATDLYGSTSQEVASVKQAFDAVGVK
T4 sequence (P81177 209-509): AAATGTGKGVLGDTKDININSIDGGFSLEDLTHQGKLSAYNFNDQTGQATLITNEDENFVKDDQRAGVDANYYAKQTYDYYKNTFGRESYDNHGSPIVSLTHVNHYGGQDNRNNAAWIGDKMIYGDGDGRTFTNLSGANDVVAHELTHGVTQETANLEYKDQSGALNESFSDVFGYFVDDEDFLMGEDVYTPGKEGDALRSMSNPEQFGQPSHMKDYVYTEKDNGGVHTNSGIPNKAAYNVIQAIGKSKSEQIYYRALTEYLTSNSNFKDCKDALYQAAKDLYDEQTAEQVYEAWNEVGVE
T5 sequence (P14756 198-498): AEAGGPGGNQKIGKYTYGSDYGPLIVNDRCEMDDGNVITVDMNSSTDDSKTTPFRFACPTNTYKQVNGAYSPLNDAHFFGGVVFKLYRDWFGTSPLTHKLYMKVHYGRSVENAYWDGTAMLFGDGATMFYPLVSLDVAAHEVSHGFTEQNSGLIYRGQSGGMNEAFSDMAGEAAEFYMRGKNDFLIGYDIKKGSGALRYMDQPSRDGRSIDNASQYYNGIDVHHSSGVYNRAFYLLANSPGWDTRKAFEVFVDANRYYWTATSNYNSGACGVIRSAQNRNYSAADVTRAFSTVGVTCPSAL

`CCOC(=O)C(CO)CP(=O)(O)C(Cc1ccccc1)NC(=O)OCc1ccccc1` (stereo not drawn) [H5] gave a remaining activity at 100 µM [1, 4] of 87.2%, a remaining activity at 100 µM [1, 5] of 88.7% and a remaining activity at 100 µM [1, 6] of 96.8%. For the same compound, the remaining activity at 100 µM [1, 7] was 96.3%, the remaining activity at 100 µM [1, 8] was 98.5% and the “vi/v0 Av (bar diagram figure 7)” value ([1]; inhibitor 100 μM, average over preincubation times) was 0.9417. For the same compound, the “vi/v0 (relative enzyme activity with inhibitor), single determinations” value [1, 9] was 0.9629 and 1.0076, the “vi/v0 (relative enzyme activity with inhibitor), single determinations” value [1, 10] was 0.8725 and 0.8868 and 0.9012 and the “vi/v0 (relative enzyme activity with inhibitor), single determinations” value [1, 11] was 1.138 and 0.953 and 0.8121. The remaining activity at 100 µM [2, 5] was 102%, the remaining activity at 100 µM [2, 12] was 77.7% and the remaining activity at 100 µM [2, 6] was 83.7%. For the same compound, the remaining activity at 100 µM [2, 8] was 100%, the “vi/v0 Av (bar diagram figure 7)” value [2, 13] was 0.9644 and the “vi/v0 (relative enzyme activity with inhibitor), single determinations” value [2, 9] was 1.202 and 0.9509 and 1.0525 and 0.8. The “vi/v0 (relative enzyme activity with inhibitor), single determinations” value [2, 10] was 1.106 and 1.228 and 0.879 and 0.8791, the “vi/v0 (relative enzyme activity with inhibitor), single determinations” value [2, 11] was 0.7771 and 0.9097 and 0.824 and the remaining activity at 100 µM [3, 4] was 87.3%. It also gave a remaining activity at 100 µM [3, 5] of 84.8%, a remaining activity at 100 µM [3, 12] of 86.9% and a remaining activity at 100 µM [3, 6] of 88.1%. For the same compound, the remaining activity at 100 µM [3, 7] was 88.4%, the remaining activity at 100 µM [3, 8] was 88.5% and the “vi/v0 Av (bar diagram figure 7)” value [3, 13] was 0.8694. The “vi/v0 (relative enzyme activity with inhibitor), single determinations” value [3, 9] was 0.8838 and 0.8693 and 0.8452 and 0.9405, the “vi/v0 (relative enzyme activity with inhibitor), single determinations” value [3, 10] was 0.8726 and 0.9039 and 0.8256 and 0.7918 and the “vi/v0 (relative enzyme activity with inhibitor), single determinations” value [3, 11] was 0.8689 and 0.8925. The remaining activity at 100 µM (aureolysin (ALN); 0.25 h, read-out: vi/v0 (single replicate), Aureolysin, 15 min pre incubation) was 84.1%, the remaining activity at 100 µM (aureolysin (ALN); 0.25 h, read-out: vi/v0 avg, Aureolysin, 15 min pre incubation) was 89.9% and the remaining activity at 100 µM (aureolysin (ALN); 0.5 h, read-out: vi/v0 (single replicate), Aureolysin, 30 min pre incubation) was 89.6%. For the same compound, the remaining activity at 100 µM (aureolysin (ALN); 0.5 h, read-out: vi/v0 avg, Aureolysin, 30 min pre incubation) was 87.3%, the “vi/v0 Av (bar diagram figure 7)” value (aureolysin (ALN); Aureolysin (ALN), inhibitor 100 μM, average over 0, 15, 30 min preincubation) was 0.8959 and the “vi/v0 (relative enzyme activity with inhibitor), single determinations” value (aureolysin (ALN); Aureolysin (ALN), inhibitor 100 μM, preincubation 0 min) was 0.8465 and 0.9473 and 0.9691 and 0.8995. For the same compound, the “vi/v0 (relative enzyme activity with inhibitor), single determinations” value (aureolysin (ALN); Aureolysin (ALN), inhibitor 100 μM, preincubation 15 min) was 0.8412 and 0.9365 and 0.9386 and 0.8803, the “vi/v0 (relative enzyme activity with inhibitor), single determinations” value (aureolysin (ALN); Aureolysin (ALN), inhibitor 100 μM, preincubation 30 min) was 0.8961 and 0.824 and 0.8612 and 0.9107 and the remaining activity at 100 µM (aureolysin (ALN); read-out: vi/v0 (single replicate), Aureolysin, no preincubation) was 84.6%. For the same compound, the remaining activity at 100 µM (aureolysin (ALN); read-out: vi/v0 avg, Aureolysin, no preincubation) was 91.6%, the remaining activity at 100 µM (pseudolysin (PLN, LasB); 0.25 h, read-out: vi/v0 (single replicate), Pseudolysin, 15 min pre incubation) was 83.9% and the remaining activity at 100 µM (pseudolysin (PLN, LasB); 0.25 h, read-out: vi/v0 avg, Pseudolysin, 15 min pre incubation) was 86.2%. For the same compound, the remaining activity at 100 µM (pseudolysin (PLN, LasB); 0.5 h, read-out: vi/v0 (single replicate), Pseudolysin, 30 min pre incubation) was 86.3%, the remaining activity at 100 µM (pseudolysin (PLN, LasB); 0.5 h, read-out: vi/v0 avg, Pseudolysin, 30 min pre incubation) was 75.4% and the “vi/v0 Av (bar diagram figure 7)” value (pseudolysin (PLN, LasB); Pseudolysin (PLN), inhibitor 100 μM, average over 0, 15, 30 min preincubation) was 0.86. For the same compound, the “vi/v0 (relative enzyme activity with inhibitor), single determinations” value (pseudolysin (PLN, LasB); Pseudolysin (PLN), inhibitor 100 μM, preincubation 0 min) was 1.071 and 0.9333 and 0.8899, the “vi/v0 (relative enzyme activity with inhibitor), single determinations” value (pseudolysin (PLN, LasB); Pseudolysin (PLN), inhibitor 100 μM, preincubation 15 min) was 0.8394 and 0.8848 and the “vi/v0 (relative enzyme activity with inhibitor), single determinations” value (pseudolysin (PLN, LasB); Pseudolysin (PLN), inhibitor 100 μM, preincubation 30 min) was 0.863 and 0.6659 and 0.7323. The remaining activity at 100 µM (pseudolysin (PLN, LasB); read-out: vi/v0 (single replicate), Pseudolysin, no preincubation) was 107%, the remaining activity at 100 µM (pseudolysin (PLN, LasB); read-out: vi/v0 avg, Pseudolysin, no preincubation) was 96.5% and the “vi/v0 Av (bar diagram figure 7)” value (thermolysin (TLN); Thermolysin (TLN), inhibitor 100 μM, average over 0, 15, 30 min preincubation) was 1.046. The “vi/v0 (relative enzyme activity with inhibitor), single determinations” value (thermolysin (TLN); Thermolysin (TLN), inhibitor 100 μM, preincubation 0 min) was 1.137 and 1.068 and 1.02 and 1.001, the “vi/v0 (relative enzyme activity with inhibitor), single determinations” value (thermolysin (TLN); Thermolysin (TLN), inhibitor 100 μM, preincubation 15 min) was 1.051 and 0.8192 and 1.086 and 1.159 and the “vi/v0 (relative enzyme activity with inhibitor), single determinations” value (thermolysin (TLN); Thermolysin (TLN), inhibitor 100 μM, preincubation 30 min) was 1.144 and 1.0013 and 1.003 and 1.066. The “vi/v0 avg (time dependent inhibition, Supplementary Figure S8)” value (thermolysin (TLN); 15 min pre incubation) was 1.029, the “vi/v0 avg (time dependent inhibition, Supplementary Figure S8)” value (thermolysin (TLN); 30 min pre incubation) was 1.054 and the “vi/v0 avg (time dependent inhibition, Supplementary Figure S8)” value (thermolysin (TLN); No preincubation) was 1.056.

From paper PMC12316308, “Interactions of substrates and phosphinyl containing inhibitors with bacterial and human zinc proteases” (PLOS One, 2025)
